Measured values as given in the supplement of paper PMC11451515.

How the values were obtained:
Details in all cases: 48 h
SEM cells [1] = experiment: AUC of viability dose-response curve (% viability x log10 dose units); higher = less sensitive
In short: (§1)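 Leukemia cells adapted to each medium were seeded in 1536-well plates (500 or 1000 cells/well). They were dosed with library compounds in DMSO at 11 threefold doses, 47 μM to 0.79 nM, for 48 h at 37°C. CellTiter-Glo One luminescence was normalised per plate to DMSO and cell-free wells. Area under the curve was integrated by trapezoidal rule over log10 doses on a four-parameter log-logistic fit; curves exceeding full viability were scaled and curves failing quality control removed.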

P12-Ichikawa [2] = experiment: as above
In short: as §1

NOMO1 [3] = experiment: as above
In short: as §1

SEM cells [4] = experiment: cell viability relative to DMSO control; higher = less cytotoxic
In short: (§2)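 Cells were incubated for 48 h at 37°C before CellTiter-Glo One luminescence was read. The cells were NOMO1 or SEM (500 cells/well) or P12-Ichikawa (1000 cells/well) leukemia cells, adapted for at least four passages in each medium and seeded in 1536-well plates (5 μl). Dosing used library compounds in DMSO applied by pin over 11 threefold points, 47 μM to 0.79 nM. Viability is the per-plate percentage of DMSO wells, with cell-free wells as background.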

P12-Ichikawa [5] = experiment: as above
In short: as §2

NOMO1 [6] = experiment: as above
In short: as §2

CN1CCCN=C1/C=C/c1cccs1.O=C(O)c1cc2ccccc2c(Cc2c(O)c(C(=O)O)cc3ccccc23)c1O
AUC of viability dose-response curve
Details	NOMO1 [3]	P12-Ichikawa [2]	SEM cells [1]
HPLM + 10% dialyzed FBS	417	413	467
RPMI 5 mM glucose + 10% FBS	446	462	442
RPMI 5 mM glucose + 10% dialyzed FBS	436	462	453

cell viability [%]
Details	NOMO1 [6]	P12-Ichikawa [5]	SEM cells [4]
HPLM + 10% dialyzed FBS, 0.000781 µM	114	114	113
HPLM + 10% dialyzed FBS, 0.00234 µM	111	117	126
HPLM + 10% dialyzed FBS, 0.00702 µM	126	118	114
HPLM + 10% dialyzed FBS, 0.0211 µM	108	122	128
HPLM + 10% dialyzed FBS, 0.0632 µM	122	112	120
HPLM + 10% dialyzed FBS, 0.19 µM	112	111	135
HPLM + 10% dialyzed FBS, 0.569 µM	123	111	118
HPLM + 10% dialyzed FBS, 1.71 µM	120	111	119
HPLM + 10% dialyzed FBS, 5.12 µM	104	103	113
HPLM + 10% dialyzed FBS, 15.4 µM	34.1	25	115
HPLM + 10% dialyzed FBS, 46.1 µM	17.2	10.2	91.9
RPMI 5 mM glucose + 10% FBS, 0.000781 µM	115	109	113
RPMI 5 mM glucose + 10% FBS, 0.00234 µM	121	121	118
RPMI 5 mM glucose + 10% FBS, 0.00702 µM	129	114	128
RPMI 5 mM glucose + 10% FBS, 0.0211 µM	112	122	119
RPMI 5 mM glucose + 10% FBS, 0.0632 µM	114	114	105
RPMI 5 mM glucose + 10% FBS, 0.19 µM	111	114	128
RPMI 5 mM glucose + 10% FBS, 0.569 µM	117	105	129
RPMI 5 mM glucose + 10% FBS, 1.71 µM	137	114	105
RPMI 5 mM glucose + 10% FBS, 5.12 µM	109	110	105
RPMI 5 mM glucose + 10% FBS, 15.4 µM	92.7	115	92.9
RPMI 5 mM glucose + 10% FBS, 46.1 µM	29.3	101	15
RPMI 5 mM glucose + 10% dialyzed FBS, 0.000781 µM	120	114	–
RPMI 5 mM glucose + 10% dialyzed FBS, 0.00234 µM	127	123	–
RPMI 5 mM glucose + 10% dialyzed FBS, 0.00702 µM	114	115	–
RPMI 5 mM glucose + 10% dialyzed FBS, 0.0211 µM	104	115	–
RPMI 5 mM glucose + 10% dialyzed FBS, 0.0632 µM	110	120	–
RPMI 5 mM glucose + 10% dialyzed FBS, 0.19 µM	110	115	–
RPMI 5 mM glucose + 10% dialyzed FBS, 0.569 µM	119	108	–
RPMI 5 mM glucose + 10% dialyzed FBS, 1.71 µM	110	112	–
RPMI 5 mM glucose + 10% dialyzed FBS, 5.12 µM	110	114	–
RPMI 5 mM glucose + 10% dialyzed FBS, 15.4 µM	64.4	98.2	–
RPMI 5 mM glucose + 10% dialyzed FBS, 46.1 µM	28.9	82.9	–
